This is an account of results in ChEMBL document CHEMBL1201862, “PubChem BioAssay data set” (2004).

The source made the active and inactive calls.

The target of series [1] is Mu-type opioid receptor (Homo sapiens, UniProt P35372). Put plainly: HTS Image-Based Screen for Agonists of the MOR Receptor. [Related pubchem assays (depositor defined):AID1777, AID1785, AID1786, AID2133]. In kind it is functional.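 Also: imaging of beta-arrestin GFP recruitment into spots after receptor activation.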
Series [2] addresses T1, Beta-galactosidase (Escherichia coli, UniProt Q8VNN2). The series is classed as functional.
Series [3] addresses T2, Kappa-type opioid receptor (Homo sapiens, UniProt P41145). In kind it is functional.
Series [4] deals with T3, Delta-type opioid receptor (Homo sapiens, UniProt P41143). Put plainly: HTS Image-Based Screen for Agonists of the DOR Receptor. [Related pubchem assays (depositor defined):AID1777, AID1786, AID2133]. In kind it is functional.
T3 sequence (P41143 whole entry): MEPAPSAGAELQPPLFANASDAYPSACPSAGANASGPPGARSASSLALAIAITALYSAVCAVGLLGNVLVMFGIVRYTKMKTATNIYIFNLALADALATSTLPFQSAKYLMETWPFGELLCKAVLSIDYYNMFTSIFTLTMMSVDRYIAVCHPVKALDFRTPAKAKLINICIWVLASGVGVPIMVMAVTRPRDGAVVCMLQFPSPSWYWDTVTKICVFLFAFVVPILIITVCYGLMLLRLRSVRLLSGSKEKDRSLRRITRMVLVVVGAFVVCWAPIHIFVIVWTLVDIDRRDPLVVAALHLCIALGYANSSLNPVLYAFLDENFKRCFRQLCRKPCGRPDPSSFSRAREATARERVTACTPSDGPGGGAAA
Series [5] has as its target T2, Kappa-type opioid receptor. In kind it is functional. The source holds these as a separate data set.
For series [6], the target named is T3, Delta-type opioid receptor. Put plainly: HTS Image-Based Screen for Antagonists of the DOR Receptor. [Related pubchem assays (depositor defined):AID1777, AID1785, AID1786, AID2133]. The series is classed as functional.
A short description of series [7]: loss of viability in HepG2 cells – cell-based, CellTiter-Glo, cherry-picked, cytotoxicity control for Shn3 inhibitor project, dose response (AID 624134). The series is classed as functional. For orientation: Cellular ATP, detected with luciferase, serves as a proxy for viable cell number.
Series [8] has as its target Cytochrome P450 2C9 (Homo sapiens, UniProt P11712).
Series [9] addresses 72 kDa type IV collagenase (Homo sapiens, UniProt P08253). Put plainly: Dose Response validation of uHTS RPN11 inhibitor hits using a MMP-2 Fluorescence assay. In kind it is functional.
The target of series [10] is Prothrombin (Bos taurus, UniProt P00735). Put plainly: thrombin protease inhibitors – biochemical, fluorescence polarization, uHTS hits, dose response (AID 602369). In kind it is functional. For orientation: Polarisation of emitted light reports the rotation of a fluorescent probe.
Series [11] has as its target T4, Type-1 angiotensin II receptor (Homo sapiens, UniProt P30556).
T4 sequence (P30556 whole entry): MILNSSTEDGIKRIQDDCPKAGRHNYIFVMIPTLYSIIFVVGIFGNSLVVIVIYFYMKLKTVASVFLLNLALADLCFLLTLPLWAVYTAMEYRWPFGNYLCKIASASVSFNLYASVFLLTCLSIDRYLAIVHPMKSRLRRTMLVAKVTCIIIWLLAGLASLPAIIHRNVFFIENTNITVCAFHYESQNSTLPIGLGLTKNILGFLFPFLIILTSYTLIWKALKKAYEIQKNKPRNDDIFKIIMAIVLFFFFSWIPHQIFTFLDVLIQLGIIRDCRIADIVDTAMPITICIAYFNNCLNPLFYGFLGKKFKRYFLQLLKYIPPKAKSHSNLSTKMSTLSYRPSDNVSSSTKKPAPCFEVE
The experiment in a line: antagonism of angiotensin II type 1 receptor – cell-based, uHTS hits, selectivity assay for APJ receptor antagonist project, dose response (AID 463214).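 Also: antagonist potency against angiotensin II stimulated AT1 response.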 The series is classed as functional.

Series [12] can be described thus: Shn3 3'UTR reporter signal decrease – cell-based, Clone20 osteoblasts, firefly luciferase, cherry-pick, set 2, Schnurri-3 inhibitor project, dose response (AID 720490).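 Also: actives lower the luminescence signal as inhibitors.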 The series is classed as functional.
The nature of series [13]: NIH3T3 cell viability loss – ATP luminescence, mouse fibroblasts, counter-screen, dose response (AID 2010).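 Also: cells exposed to compound for about 90 hours before reading.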 The series is classed as functional, cell-based. A general note: The purpose of a counterscreen is to sort out artefacts and off-target activity.
Series [14] in a line: reduction of Shn3 3'UTR-driven luciferase in osteoblasts – cell-based, Clone20 osteoblasts, firefly luciferase, cherry-picked, dose response (AID 624132).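 Also: firefly luciferase luminescence from reporter carrying the Shn3 3'UTR in osteoblasts.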 In kind it is functional.
Series [15] is described as follows: Trypanosoma cruzi growth suppression in host cells – NIH3T3 host cells, beta-gal luminescence, confirmation (AID 2044).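 Also: intracellular parasites grown in NIH/3T3 mouse fibroblasts as host cells; luminescent beta-galactosidase reporter signal from transgenic T. cruzi replicating inside host cells; inhibitors lower the luminescence signal.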 In kind it is functional, cell-based.
The target in series [16] is T1, Beta-galactosidase. Put plainly: PubChem AID 485352. The series is classed as functional.
Series [17] deals with 26S proteasome non-ATPase regulatory subunit 14 (Homo sapiens, UniProt O00487). Put plainly: inhibition of proteasome subunit RPN11 – biochemical, fluorescence polarization, uHTS hits, confirmation (AID 602368). The series is classed as functional.
Chain of 26S proteasome non-ATPase regulatory subunit 14 (O00487 whole entry): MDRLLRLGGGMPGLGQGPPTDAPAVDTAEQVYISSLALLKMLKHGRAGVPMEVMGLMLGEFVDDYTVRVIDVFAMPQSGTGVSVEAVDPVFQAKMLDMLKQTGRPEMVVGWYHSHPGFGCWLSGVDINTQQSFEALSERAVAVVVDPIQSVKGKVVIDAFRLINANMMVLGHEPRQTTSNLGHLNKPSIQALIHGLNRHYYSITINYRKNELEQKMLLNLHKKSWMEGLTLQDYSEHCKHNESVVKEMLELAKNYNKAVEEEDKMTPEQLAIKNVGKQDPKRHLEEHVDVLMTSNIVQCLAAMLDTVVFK
The target of series [18] is Photoreceptor-specific nuclear receptor (Homo sapiens, UniProt Q9Y5X4). In kind it is functional.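 Also: potency for compounds that break the NR2E3 corepressor complex and count as activators.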
Chain of Photoreceptor-specific nuclear receptor (Q9Y5X4 whole entry): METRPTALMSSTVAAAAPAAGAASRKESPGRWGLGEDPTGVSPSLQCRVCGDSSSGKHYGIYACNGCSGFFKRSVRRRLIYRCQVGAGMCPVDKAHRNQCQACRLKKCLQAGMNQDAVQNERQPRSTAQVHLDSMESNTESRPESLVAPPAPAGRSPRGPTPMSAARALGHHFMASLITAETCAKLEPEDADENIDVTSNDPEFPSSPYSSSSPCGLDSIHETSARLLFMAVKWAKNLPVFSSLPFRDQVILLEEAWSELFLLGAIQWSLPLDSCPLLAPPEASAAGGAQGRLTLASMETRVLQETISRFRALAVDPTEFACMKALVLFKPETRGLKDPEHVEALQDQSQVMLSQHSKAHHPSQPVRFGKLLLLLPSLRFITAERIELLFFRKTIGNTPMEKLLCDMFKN
Series [19] concerns the target T1, Beta-galactosidase. The experiment in a line: detection-enzyme interference by beta-gal modulators – biochemical, E. coli enzyme, set 3, artefact control for CCR6 antagonist project, dose response (AID 504712). The series is classed as functional.
In series [20] the target is Peroxisome proliferator-activated receptor gamma/Nuclear receptor corepressor 2 (Homo sapiens, UniProt P37231+Q9Y618). In kind it is functional.
A short description of series [21]: viability loss of HPDE-C7K cells – cell-based, fluorescence, HTS, primary screen (AID 431). The series is classed as functional. As to conditions: Homo sapiens.
The nature of series [22]: HPDE-C7 pancreatic duct cell viability loss – fluorescence, HTS (AID 430). In kind it is functional, cell-based. As to conditions: Homo sapiens.
In series [23] the target is T5, Heat shock factor protein 1 (Mus musculus, UniProt P38532).
T5 sequence (P38532 whole entry): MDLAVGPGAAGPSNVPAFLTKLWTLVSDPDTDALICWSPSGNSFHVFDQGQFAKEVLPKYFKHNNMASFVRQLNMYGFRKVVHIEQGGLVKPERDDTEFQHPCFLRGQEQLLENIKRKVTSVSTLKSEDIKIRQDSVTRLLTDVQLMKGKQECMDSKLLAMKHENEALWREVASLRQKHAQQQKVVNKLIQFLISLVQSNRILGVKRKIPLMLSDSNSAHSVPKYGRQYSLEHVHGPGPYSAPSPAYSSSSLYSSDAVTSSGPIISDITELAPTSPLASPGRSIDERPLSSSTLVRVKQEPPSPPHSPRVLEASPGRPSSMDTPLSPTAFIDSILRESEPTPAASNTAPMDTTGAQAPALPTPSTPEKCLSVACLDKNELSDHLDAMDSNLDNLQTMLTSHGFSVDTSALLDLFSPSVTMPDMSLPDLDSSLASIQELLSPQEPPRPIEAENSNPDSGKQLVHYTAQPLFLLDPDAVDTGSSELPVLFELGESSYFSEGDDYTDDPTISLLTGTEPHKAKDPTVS
Put plainly: enhancement of HSF1-driven luciferase signal – cell-based, NIH3T3, luminescence, dose retest, confirmation (AID 435004).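 Also: stress induced by proteasome inhibitor MG132 added 30 min after compound; luciferase reporter driven by HSF1 response element in NIH3T3 cells; actives raise luminescence as potentiators of the MG132 stress response.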 In kind it is functional.

The target in series [24] is Sphingosine 1-phosphate receptor 2 (Homo sapiens, UniProt O95136). The experiment in a line: Dose Response Cell Based Assay for Antagonists of the S1P2 Receptor. [Related pubchem assays: 856, 736 ]. The series is classed as functional.
Chain of Sphingosine 1-phosphate receptor 2 (O95136 whole entry): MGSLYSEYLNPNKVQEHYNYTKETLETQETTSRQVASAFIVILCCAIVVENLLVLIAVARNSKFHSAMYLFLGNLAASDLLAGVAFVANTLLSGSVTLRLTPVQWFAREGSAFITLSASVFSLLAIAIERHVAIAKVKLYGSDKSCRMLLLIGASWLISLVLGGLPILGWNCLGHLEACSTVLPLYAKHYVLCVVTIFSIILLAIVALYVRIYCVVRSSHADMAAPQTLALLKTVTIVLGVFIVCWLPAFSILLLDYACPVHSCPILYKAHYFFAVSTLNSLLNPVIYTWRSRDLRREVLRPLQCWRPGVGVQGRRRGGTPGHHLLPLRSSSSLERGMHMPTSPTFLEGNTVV
Series [25] deals with G-protein coupled receptor 35 (Homo sapiens, UniProt Q9HC97). The experiment in a line: inhibition of zaprinast-stimulated GPR35 beta-arrestin translocation – imaging, U2OS, beta-arrestin-GFP, zaprinast agonist, primary screen (AID 2058).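 Also: antagonist potency meaning inhibition of agonist-induced arrestin redistribution.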 In kind it is functional.
Chain of G-protein coupled receptor 35 (Q9HC97 whole entry): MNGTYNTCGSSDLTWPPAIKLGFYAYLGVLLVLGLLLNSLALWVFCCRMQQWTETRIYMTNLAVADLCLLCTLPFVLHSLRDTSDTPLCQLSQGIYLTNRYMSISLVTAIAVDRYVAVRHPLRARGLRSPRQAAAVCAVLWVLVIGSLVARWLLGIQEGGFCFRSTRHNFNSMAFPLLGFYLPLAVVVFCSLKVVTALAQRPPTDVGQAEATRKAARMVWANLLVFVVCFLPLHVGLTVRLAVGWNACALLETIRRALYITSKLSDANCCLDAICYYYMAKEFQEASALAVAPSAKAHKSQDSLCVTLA
A short description of series [26]: microbe, parasite or virus in culture. To be noted: Mycobacterium tuberculosis. The series is classed as functional.
The nature of series [27]: HEK-293T cell viability reduction – luminescence, B-cell screen hits, cytotoxicity control for BCR NF-kB inhibitor project, dose response (AID 489021).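 Also: HEK-293T cells carrying an NF-kB luciferase reporter; cells exposed to compound for about 14 hours before viability readout.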 The series is classed as functional, cell-based.

T1 sequence (Q8VNN2 whole entry): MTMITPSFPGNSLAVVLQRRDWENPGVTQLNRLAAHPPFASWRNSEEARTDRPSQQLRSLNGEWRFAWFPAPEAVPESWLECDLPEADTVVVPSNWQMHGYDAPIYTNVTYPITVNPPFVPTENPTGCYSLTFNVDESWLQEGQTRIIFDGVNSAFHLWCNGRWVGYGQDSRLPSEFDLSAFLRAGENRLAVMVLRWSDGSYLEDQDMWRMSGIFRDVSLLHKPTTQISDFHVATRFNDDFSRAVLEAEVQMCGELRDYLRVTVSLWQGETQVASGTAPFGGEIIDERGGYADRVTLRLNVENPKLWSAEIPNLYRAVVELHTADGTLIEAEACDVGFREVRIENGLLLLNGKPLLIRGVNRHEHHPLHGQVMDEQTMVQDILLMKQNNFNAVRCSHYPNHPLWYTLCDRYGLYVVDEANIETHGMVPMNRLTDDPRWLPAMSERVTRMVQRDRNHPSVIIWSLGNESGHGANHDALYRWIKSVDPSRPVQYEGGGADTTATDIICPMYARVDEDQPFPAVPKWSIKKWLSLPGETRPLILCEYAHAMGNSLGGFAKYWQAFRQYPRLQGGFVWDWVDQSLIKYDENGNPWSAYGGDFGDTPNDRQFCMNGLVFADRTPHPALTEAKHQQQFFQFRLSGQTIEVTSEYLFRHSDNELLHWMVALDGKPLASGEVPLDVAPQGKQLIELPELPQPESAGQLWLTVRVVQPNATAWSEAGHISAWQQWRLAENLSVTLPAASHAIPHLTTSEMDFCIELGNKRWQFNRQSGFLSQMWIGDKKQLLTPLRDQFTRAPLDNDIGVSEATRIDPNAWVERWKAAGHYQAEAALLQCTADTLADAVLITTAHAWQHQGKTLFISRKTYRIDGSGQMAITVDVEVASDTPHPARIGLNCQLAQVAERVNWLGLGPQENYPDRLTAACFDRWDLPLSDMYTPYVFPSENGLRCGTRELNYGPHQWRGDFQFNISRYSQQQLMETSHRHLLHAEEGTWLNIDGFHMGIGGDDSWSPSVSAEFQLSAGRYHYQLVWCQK
T2 sequence (P41145 whole entry): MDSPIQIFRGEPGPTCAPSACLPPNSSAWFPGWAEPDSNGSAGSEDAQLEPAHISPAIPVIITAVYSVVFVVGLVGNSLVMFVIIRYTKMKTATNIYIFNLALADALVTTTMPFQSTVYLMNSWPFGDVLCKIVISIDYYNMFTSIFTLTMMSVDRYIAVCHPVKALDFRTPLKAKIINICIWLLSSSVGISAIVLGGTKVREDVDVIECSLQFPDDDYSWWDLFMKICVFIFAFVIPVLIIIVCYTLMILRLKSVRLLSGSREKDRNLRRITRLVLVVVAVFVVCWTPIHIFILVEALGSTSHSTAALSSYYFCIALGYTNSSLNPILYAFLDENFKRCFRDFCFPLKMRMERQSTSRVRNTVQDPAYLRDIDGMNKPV
Chain of Mu-type opioid receptor (P35372 whole entry): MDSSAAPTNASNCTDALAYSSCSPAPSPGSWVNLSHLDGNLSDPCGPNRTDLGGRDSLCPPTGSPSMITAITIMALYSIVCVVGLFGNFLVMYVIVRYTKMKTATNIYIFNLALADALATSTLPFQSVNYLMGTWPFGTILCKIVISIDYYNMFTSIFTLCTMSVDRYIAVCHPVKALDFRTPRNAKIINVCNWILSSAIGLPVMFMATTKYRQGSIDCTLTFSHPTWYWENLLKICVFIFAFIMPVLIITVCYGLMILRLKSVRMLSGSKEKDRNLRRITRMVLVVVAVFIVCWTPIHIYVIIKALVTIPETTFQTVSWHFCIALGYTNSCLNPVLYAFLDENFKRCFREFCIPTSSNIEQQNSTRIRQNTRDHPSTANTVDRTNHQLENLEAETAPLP
Chain of 72 kDa type IV collagenase (P08253 whole entry): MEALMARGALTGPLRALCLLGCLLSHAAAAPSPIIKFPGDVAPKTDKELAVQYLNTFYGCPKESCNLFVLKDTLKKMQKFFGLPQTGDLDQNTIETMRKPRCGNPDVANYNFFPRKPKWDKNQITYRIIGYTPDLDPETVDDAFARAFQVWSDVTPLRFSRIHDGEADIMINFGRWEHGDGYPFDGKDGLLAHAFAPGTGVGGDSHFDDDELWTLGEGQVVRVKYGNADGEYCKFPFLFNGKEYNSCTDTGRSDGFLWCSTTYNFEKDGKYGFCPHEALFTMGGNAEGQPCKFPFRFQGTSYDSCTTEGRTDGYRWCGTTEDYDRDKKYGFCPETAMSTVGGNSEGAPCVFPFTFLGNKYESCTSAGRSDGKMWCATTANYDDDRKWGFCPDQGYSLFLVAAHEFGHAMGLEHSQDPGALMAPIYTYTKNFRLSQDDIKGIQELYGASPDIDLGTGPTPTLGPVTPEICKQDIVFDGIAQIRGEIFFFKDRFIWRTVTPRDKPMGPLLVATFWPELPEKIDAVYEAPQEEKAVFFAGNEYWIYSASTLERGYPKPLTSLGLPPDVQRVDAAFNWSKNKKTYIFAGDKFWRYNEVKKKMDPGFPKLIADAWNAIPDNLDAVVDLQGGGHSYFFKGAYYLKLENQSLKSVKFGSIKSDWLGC
Chain of Cytochrome P450 2C9 (P11712 whole entry): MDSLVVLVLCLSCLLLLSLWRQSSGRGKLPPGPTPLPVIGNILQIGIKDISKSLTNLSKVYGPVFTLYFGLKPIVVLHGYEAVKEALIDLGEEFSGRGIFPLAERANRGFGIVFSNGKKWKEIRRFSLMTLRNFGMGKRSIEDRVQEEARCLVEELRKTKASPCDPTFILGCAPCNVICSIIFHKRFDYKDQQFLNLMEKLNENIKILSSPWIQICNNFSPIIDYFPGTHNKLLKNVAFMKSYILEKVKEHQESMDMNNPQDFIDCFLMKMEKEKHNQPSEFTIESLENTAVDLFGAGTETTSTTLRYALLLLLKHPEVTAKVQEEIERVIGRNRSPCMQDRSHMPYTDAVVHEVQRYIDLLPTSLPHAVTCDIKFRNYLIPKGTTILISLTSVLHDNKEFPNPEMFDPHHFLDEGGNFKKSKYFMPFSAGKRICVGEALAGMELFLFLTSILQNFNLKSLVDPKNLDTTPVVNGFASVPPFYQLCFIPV

A word on the EC50: it is the concentration at which the effect is half-maximal. In general, IC50 refers to the point on the concentration scale where inhibition reaches its midpoint. In the case of `COc1cc2c(c(OC)c1OC)-c1c(cc3c(c1OC)OCO3)C1OC2[C@@H](C)[C@H]1C` (stereo not given in full), the EC50 in series [1] is > 32 µM (inactive); in series [2], > 31.5 µM (inactive); in [4], > 32 µM (inactive). Also, the values for the IC50 in series [3], in series [5] and in series [6] were 10 µM (active), 9.42 µM and > 32 µM (inactive), respectively.
By AC50 is commonly meant the concentration at which the activity in the assay is half-maximal. Take `Cc1cccc(CSc2cccc3cccnc23)c1`: the EC50 in series [1] is > 32 µM (inactive); in series [2], > 31.5 µM (inactive); in [13], 9.65 µM (active); in series [4], > 32 µM (inactive); in [15], 0.307 µM (active); in series [16] it was > 40 µM (inactive). The AC50 is > 70 µM (inactive) in series [7], “inconclusive” in [8], 7.99 µM (active) in series [12] and 2.54 µM (active) in series [14]. The IC50 in [9] was > 100 µM (inactive); in series [10], > 100 µM (inactive); in series [11], 10.1 µM (active); in series [3], 8.68 µM (active); in series [5], above 32 µM; in [6], > 32 µM (inactive). Also, the IC50 in series [17] was 21.5 µM (active).
As for `CCN(CC(=O)NC(C)(C)C)Cc1nc(O)c2cc(Br)cc(Br)c2n1`, the IC50 is > 39.8 µM (not active) in [18], > 66.6 µM (inactive) in [19] and 15 µM (not active) in series [20].
As for `CCN(CC)c1ccc2c(Cl)c(Br)c(=O)oc2c1`, the 50% effective concentration (EC50) is 2.08 µM (active) in series [21]; 3.1 µM (active) in series [22]; 4.88 µM (active) in series [13]; 2.75 µM (inconclusive) in series [23]; 2.96 µM (active) in series [15]. The IC50 in series [24] is 2.53 µM (active); in series [25] it was < 0.5 µM (active). Moreover, the CC50 in series [26] is > 40 µM (active).
As to `OCCC/N=C/c1c(-c2ccccc2)nn(-c2nc3ccccc3s2)c1O`, the IC50 in series [27] is > 80 µM (inactive).
